Reference: patent US7033772B1, “Methods of identifying inhibitors of fatty acid transport proteins (FATP)” (Millennium Pharmaceuticals, Inc., priority 1998, dated 2006)
Where two headings read alike, the source gives them in different places.

Legend:
[1] = target: T1, FATP4 (Homo sapiens, UniProt Q6P1M0); test: Competition of Bodipy-FA uptake by FATP4 expressing cells (FACS); type: cell-based; conditions: for inhibition at 100 µM: read-out: Competition (inhibition of Bodipy-FA uptake)
T1 construct: expressed in transfected cells; host or cells: 293 cells (human kidney), stably transfected with pIRES-neo-hsFATP4, G418-selected
T1 sequence (Q6P1M0 whole entry): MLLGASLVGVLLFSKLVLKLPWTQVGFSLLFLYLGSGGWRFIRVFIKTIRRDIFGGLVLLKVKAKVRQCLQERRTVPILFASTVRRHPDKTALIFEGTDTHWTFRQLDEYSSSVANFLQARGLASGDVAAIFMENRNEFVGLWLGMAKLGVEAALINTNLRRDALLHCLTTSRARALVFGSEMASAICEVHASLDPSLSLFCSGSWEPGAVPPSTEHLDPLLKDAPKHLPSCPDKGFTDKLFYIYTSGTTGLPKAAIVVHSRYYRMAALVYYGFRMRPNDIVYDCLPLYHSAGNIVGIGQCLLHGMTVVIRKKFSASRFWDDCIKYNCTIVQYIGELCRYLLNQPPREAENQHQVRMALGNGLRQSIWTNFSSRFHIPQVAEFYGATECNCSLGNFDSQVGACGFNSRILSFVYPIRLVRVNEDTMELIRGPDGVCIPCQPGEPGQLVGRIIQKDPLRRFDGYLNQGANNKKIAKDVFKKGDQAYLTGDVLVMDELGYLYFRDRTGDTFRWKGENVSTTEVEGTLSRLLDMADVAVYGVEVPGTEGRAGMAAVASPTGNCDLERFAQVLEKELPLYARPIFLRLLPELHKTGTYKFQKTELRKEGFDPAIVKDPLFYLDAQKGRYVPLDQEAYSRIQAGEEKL
Method: Bodipy-FA uptake assays using FACS were performed, adapted to a 96-well format. LCFA uptake assays with enterocytes or with stably transfected 293 cells were done as follows. Mixed micelles of radiolabeled FA (NEN) and taurocholate (Sigma) in HBS were generated by brief sonication at 37° C. […] Final taurocholate concentration was 5 mM. Cells were incubated for the indicated amount of time at 37° C. The assay was stopped by transferring the cells onto filter paper followed by extensive washes with ice-cold HBS containing 0.1% BSA using a cell harvester (Brandell). Incorporated oleate was then determined by β-scintillation counting (Beckman).

[2] = tested on: 293 cells; test: Uptake of radiolabeled substrates by control (vector) 293 cells; type: cell-based, human; conditions: 10 μM substrate in HBS with 5 mM taurocholate; rate over 4 min
Method: (§1) Several of the cell lines with the highest amount of Bodipy-FA uptake as well as isolated primary enterocytes were used to measure the uptake of radiolabeled FAs.
(§2) Bodipy-FA uptake assays using FACS were performed, adapted to a 96-well format. LCFA uptake assays with enterocytes or with stably transfected 293 cells were done as follows. Mixed micelles of radiolabeled FA (NEN) and taurocholate (Sigma) in HBS were generated by brief sonication at 37° C. Equal volumes of cells and micelle solution were mixed, resulting in a final FA concentration of 25 μM for antisense assays and 10 μM for substrate specificity assays. Final taurocholate concentration was 5 mM. Cells were incubated for the indicated amount of time at 37° C. The assay was stopped by transferring the cells onto filter paper followed by extensive washes with ice-cold HBS containing 0.1% BSA using a cell harvester (Brandell). Incorporated oleate was then determined by β-scintillation counting (Beckman).

[3] = tested on: enterocytes; test: Uptake of radiolabeled substrates by isolated primary enterocytes; type: cell-based, mouse; conditions: for Uptake, Enterocytes: 10 μM substrate in HBS with 5 mM taurocholate, rate over 4 min; for Transport of the substrate by isolated primary enterocytes (in words): compared with transfected 293 cells
Method: as §1, §2

[4] = target: T2, hsFATP4 (Homo sapiens, UniProt Q6P1M0); test: Uptake of radiolabeled substrates by 293 cells stably expressing FATP4; type: cell-based; conditions: for Uptake, 293 Cells Stably Expressing FATP4: 10 μM substrate in HBS with 5 mM taurocholate, rate over 4 min; for Uptake, FATP4 specific: FATP4-expressing minus control 293 cells, 10 μM substrate, 5 mM taurocholate; for Effect of hsFATP4 expression on uptake of the substrate (in words): stably transfected 293 cells vs vector
T2 construct: expressed in transfected cells; host or cells: 293 cells (human kidney), stably transfected with pIRES-neo-hsFATP4, G418-selected
T2 sequence (Q6P1M0 whole entry): as above
Method: Using a mammalian expression vector, we generated 40 stable […] cell lines expressing hsFATP4 and 20 cell lines transfected with a control plasmid.
as §1, §2

[5] = tested on: FATP4 mRNA; test: Oleate uptake by isolated mouse enterocytes after incubation with FATP4 oligonucleotides; type: cell-based; conditions: 100 μM oligonucleotide; for Inhibition of fatty acid (oleate) uptake over time: 48 h, 25 μM oleate, FIG. 40
[6] = tested on: enterocytes; test: 35S-methionine uptake by cultured enterocytes after oligonucleotide treatment (specificity control); type: cell-based, mouse; conditions: 100 μM oligonucleotide, 48 h; FIG. 42
Method: As a further control experiment, the uptake of oleate was measured along with the uptake of methionine in the same cultured enterocytes. Antisense oligonucleotide, mismatch sequence oligonucleotide, or no oligonucleotide was added to a concentration of 100 μM to cultures of enterocytes. After incubation for 48 hours, the uptake of both ^3H-labeled oleate and ^35S-labeled methionine was assayed. Fatty acid uptake is at the left side of the paired bars; methionine uptake is on the right side of the paired bars.

[7] = 5 μM Bodipy-FA, 100 μM competitor (20-fold molar excess), 100% = effect of 200 μM lauric acid

## CC1=C(C/C=C(\C)CCC[C@H](C)CCC[C@H](C)CCCC(C)C)C(=O)c2ccccc2C1=O [3-Phytylamenadione (Vitamin K1), 3-Phytylamenadione]
[1]; [7]
  Competition (inhibition of Bodipy-FA uptake): − (0%-30% inhibition by the indicated substance)

## CCCCCCCCCCCCCCCCCCCC(=O)O [Arachidic Acid]
[1]; [7]
  inhibition at 100 µM: 70 to 100%

## CCCCC/C=C\C/C=C\C/C=C\C/C=C\CCCC(=O)O [Arachidonate]
[2]
  Uptake, 293 Cells Control: 3 pmol/min 10^6 cells
[3]
  Uptake, Enterocytes: 0 pmol/min 10^6 cells

## CCCC(=O)O [Butyrate, Butyric Acid]
[2]
  Uptake, 293 Cells Control: 0 pmol/min 10^6 cells
[3]
  Uptake, Enterocytes: 73 pmol/min 10^6 cells
  Transport of the substrate by isolated primary enterocytes (in words): absence of transport

## CCCCCCCCCC(=O)O [Capric Acid]
[1]; [7]
  inhibition at 100 µM: 70 to 100%

## CCCCCC(=O)O [Caproic Acid]
[1]
  inhibition at 100 µM: 0 to 30%

## CCCCCCCCCCCCCCCCCCCCCCCCCC(=O)O [Cerotic Acid]
[1]; [7]
  inhibition at 100 µM: 70 to 100%

## CC(C)CCC[C@@H](C)[C@H]1CC[C@H]2[C@@H]3CC=C4C[C@@H](O)CC[C@]4(C)[C@H]3CC[C@]12C [Cholesterol]
[2]
  Uptake, 293 Cells Control: 319 pmol/min 10^6 cells
[4]
  Uptake, 293 Cells Stably Expressing FATP4: 345 pmol/min 10^6 cells
  Uptake, FATP4 specific: 26 pmol/min 10^6 cells
  Effect of hsFATP4 expression on uptake of the substrate (in words): not
[3]
  Uptake, Enterocytes: 531 pmol/min 10^6 cells
  Transport of the substrate by isolated primary enterocytes (in words): more robust transport

## CCCCCCCC/C=C\CCCCCCCC(=O)O[C@H]1CC[C@@]2(C)C(=CC[C@H]3[C@@H]4CC[C@H]([C@H](C)CCCC(C)C)[C@@]4(C)CC[C@@H]32)C1 [Cholesteryl Oleate]
[1]; [7]
  Competition (inhibition of Bodipy-FA uptake): − (0%-30% inhibition by the indicated substance)

## CCCCCCCCCCCCCCCCCCCCCCCC(=O)O [Lignoceric Acid]
[1]
  inhibition at 100 µM: 70 to 100%

## CCCCC/C=C\C/C=C\CCCCCCCC(=O)O [Linolate, Linoleic Acid]
[2]
  Uptake, 293 Cells Control: 640 pmol/min 10^6 cells
[4]
  Uptake, 293 Cells Stably Expressing FATP4: 673 pmol/min 10^6 cells
  Uptake, FATP4 specific: 33 pmol/min 10^6 cells
  Effect of hsFATP4 expression on uptake of the substrate (in words): not
[3]
  Uptake, Enterocytes: 116 pmol/min 10^6 cells
  Transport of the substrate by isolated primary enterocytes (in words): more robust transport
[1]; [7]
  inhibition at 100 µM: 70 to 100%

## CCCCCCCCCCCCCC(=O)O [Myristic Acid]
[1]
  inhibition at 100 µM: 70 to 100%

## CCCCCCCC(=O)O [Octanoate, Caprylic Acid]
[2]
  Uptake, 293 Cells Control: 0 pmol/min 10^6 cells
[4]
  Uptake, 293 Cells Stably Expressing FATP4: 0 pmol/min 10^6 cells
  Uptake, FATP4 specific: 0 pmol/min 10^6 cells
  Effect of hsFATP4 expression on uptake of the substrate (in words): not
[3]
  Uptake, Enterocytes: 5 pmol/min 10^6 cells
  Transport of the substrate by isolated primary enterocytes (in words): absence of transport
[1]
  inhibition at 100 µM: 0 to 30%

## CCCCCCCC/C=C\CCCCCCCC(=O)O [Oleate, Oleic Acid]
[2]
  Uptake, 293 Cells Control: 662 pmol/min 10^6 cells
[4]
  Uptake, 293 Cells Stably Expressing FATP4: 1122 pmol/min 10^6 cells
  Uptake, FATP4 specific: 459 pmol/min 10^6 cells
  Effect of hsFATP4 expression on uptake of the substrate (in words): accelerated the uptake
[3]
  Uptake, Enterocytes: 117 pmol/min 10^6 cells
  Transport of the substrate by isolated primary enterocytes (in words): preference
[1]; [7]
  Competition (inhibition of Bodipy-FA uptake): ++ (70%-100% inhibition)

## CCCCCCCC/C=C\CCCCCCCC(=O)OCC [Oleic Acid Ethyl Ester]
[1]; [7]
  inhibition at 100 µM: 0 to 30%

## CCCCCCCC/C=C\CCCCCCCCOC(=O)CCCCCCC/C=C\CCCCCCCC [Oleic Acid Oley Ester]
[1]; [7]
  Competition (inhibition of Bodipy-FA uptake): − (0%-30% inhibition by the indicated substance)

## CCCCCCCC/C=C\CCCCCCCC(=O)SCCNC(=O)CCNC(=O)[C@H](O)C(C)(C)COP(=O)(O)OP(=O)(O)OC[C@H]1O[C@@H](n2cnc3c(N)ncnc32)[C@H](O)[C@@H]1OP(=O)(O)O [Oleoyl CoA]
[1]; [7]
  inhibition at 100 µM: 0 to 30%

## CCCCCCCCCCCCCCCC(=O)O [Palmitate, Palmitic Acid]
[2]
  Uptake, 293 Cells Control: 564 pmol/min 10^6 cells
[4]
  Uptake, 293 Cells Stably Expressing FATP4: 1695 pmol/min 10^6 cells
  Uptake, FATP4 specific: 1131 pmol/min 10^6 cells
[4]; stably transfected 293 cells, FIG. 97
  Enhancement of rate of uptake by hsFATP4 expression over 293 cells transfected with vector alone: approximately 3 fold
[3]
  Uptake, Enterocytes: 3036 pmol/min 10^6 cells
  Transport of the substrate by isolated primary enterocytes (in words): preference
[1]; [7]
  inhibition at 100 µM: 70 to 100%

## CCCCCCCCCCCCCCCC(=O)OC [Palmitic Acid Methyl Ester]
[1]; [7]
  inhibition at 100 µM: 0 to 30%

## CCCCC[C@H](O)/C=C/[C@H]1[C@H](O)CC(=O)[C@@H]1C/C=C\CCCC(=O)O [Prostaglandin E2]
[1]; [7]
  Competition (inhibition of Bodipy-FA uptake): − (0%-30% inhibition by the indicated substance)

## CC1=C(/C=C/C(C)=C/C=C/C(C)=C/C(=O)O)C(C)(C)CCC1 [Retinoic Acid (Pro-Vitamin A), Retinoic Acid]
[1]; [7]
  inhibition at 100 µM: 30 to 50%

## CCCCCCCCCCCCCCCCCC(=O)OC [Stearic Acid Methyl Ester]
[1]
  inhibition at 100 µM: 0 to 30%

## CCCCCCCCCCCCCCCCCC(=O)O [Stearic Acid]
[1]; [7]
  inhibition at 100 µM: 50 to 70%

## Ergocalciferol [Ergocalciferol (Vitamin D2)]
[1]; [7]
  Competition (inhibition of Bodipy-FA uptake): − (0%-30% inhibition by the indicated substance)

## FATP4-AS2: Antisense oligo CCCCCACCAGAGAGGCTCC (SEQ ID NO:103), complementary to nucleotides 10 to 28 of the mouse FATP4 coding sequence (chemistry not given here)
[5]
  Inhibition of fatty acid (oleate) uptake over time: ~50%
[5]; 48 h incubation, FIG. 41
  Inhibition of oleate uptake over a 5 minute interval: ~50%
[6]
  Methionine (amino acid) uptake: not influenced

## FATP4-S2: Sense control oligo GGAGCCTCTCTGGTGGGGG (SEQ ID NO:105) (chemistry not given here)
[5]
  Inhibition of fatty acid (oleate) uptake over time: did not significantly influence the uptake

## Tocopherol [Tocopherol (Vitamin E)]
[1]; [7]
  Competition (inhibition of Bodipy-FA uptake): − (0%-30% inhibition by the indicated substance)
